{"source": "patent US9169254B2", "about": "“Spiroimidazolone derivative” (Chugai Seiyaku Kabushiki Kaisha, priority 2009, dated 2015)"}
{"target": "T1, human PTH1 receptor (Homo sapiens, UniProt Q03431)", "T1 sequence (Q03431 27-593)": "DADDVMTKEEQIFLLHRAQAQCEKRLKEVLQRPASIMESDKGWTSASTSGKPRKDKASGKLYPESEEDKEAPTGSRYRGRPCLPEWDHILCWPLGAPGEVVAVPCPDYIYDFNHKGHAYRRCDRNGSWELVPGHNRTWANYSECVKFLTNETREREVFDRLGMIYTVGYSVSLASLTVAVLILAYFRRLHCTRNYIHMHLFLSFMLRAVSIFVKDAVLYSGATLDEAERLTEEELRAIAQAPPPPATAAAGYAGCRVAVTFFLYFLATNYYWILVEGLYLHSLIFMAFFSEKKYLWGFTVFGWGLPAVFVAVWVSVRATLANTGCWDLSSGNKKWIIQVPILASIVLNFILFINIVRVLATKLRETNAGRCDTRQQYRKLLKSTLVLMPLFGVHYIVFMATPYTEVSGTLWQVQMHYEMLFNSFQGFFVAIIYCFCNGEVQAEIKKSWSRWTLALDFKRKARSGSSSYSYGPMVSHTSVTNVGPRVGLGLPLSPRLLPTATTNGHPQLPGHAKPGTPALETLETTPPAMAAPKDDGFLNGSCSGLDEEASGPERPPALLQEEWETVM", "assay": "In vitro cAMP signal activity in HKRK-B7 cells (LLC-PK1 cells overexpressing the human PTH1 receptor)", "type": "cell-based", "conditions": "HKRK-B7 cells; compound at 1×10^−3 M; cAMP produced as percentage of that produced by hPTH(1-34) at 100 nM", "units": {"cAMP production activity (%)": "%"}}
{"smiles": "CCCCCCCCCC1=NC2(CCN(S(=O)(=O)/C=C/c3c(C)cc(N(C)C(N)=O)cc3C)CC2)C(=O)N1", "note": "[Compound 692, 1-{3,5-Dimethyl-4-[(E)-2-(2-nonyl-4-oxo-1,3,8-triaza-spiro[4.5]dec-1-ene-8-sulfonyl)-vinyl]-phenyl}-1-methyl-urea]", "cAMP production activity (%)": 101}
{"smiles": "Cc1cc(C(=O)N2CCCO2)cc(C)c1CCS(=O)(=O)N1CCC2(CC1)N=C(C1CCC(C)CC1)NC2=O", "note": "(stereo not shown) [Compound 1182, 8-{2-[4-(isoxazolidine-2-carbonyl)-2,6-dimethyl-phenyl]-ethanesulfonyl}-2-(4-methyl-cyclohexyl)-1,3,8-triaza-spiro[4.5]dec-1-en-4-one]", "cAMP production activity (%)": 109}
{"smiles": "O=C1NC(c2cccc(Cl)c2)=NC12CCN(S(=O)(=O)c1cccc(Cl)c1)CC2", "note": "[Compound 6, 8-(3-chloro-benzenesulfonyl)-2-(3-chloro-phenyl)-1,3,8-triaza-spiro[4.5]dec-1-en-4-one]", "cAMP production activity (%)": 4.2}
{"smiles": "CC1(C)OC[C@H](Cn2ccc3c(/C=C/S(=O)(=O)N4CCC5(CC4)N=C(C4CCC(C(F)(F)F)CC4)NC5=O)cccc32)O1", "note": "(stereo partly drawn) [Compound 245, 8-{(E)-2-[1-((S)-2,2-dimethyl-[1,3]dioxolan-4-ylmethyl)-1H-indol-4-yl]-ethenesulfonyl}-2-(4-trifluoromethyl-cyclohexyl)-1,3,8-triaza-spiro[4.5]dec-1-en-4-one]", "cAMP production activity (%)": 34}
{"smiles": "Cc1cc(C(=O)N(C)C)ccc1CCS(=O)(=O)N1CCC2(CC1)N=C(/C=C/c1cccc(C(F)(F)F)c1)NC2=O", "note": "[Compound 892, 3,N,N-trimethyl-4-(2-{4-oxo-2-[(E)-2-(3-trifluoromethyl-phenyl)-vinyl]-1,3,8-triaza-spiro[4.5]dec-1-ene-8-sulfonyl}-ethyl)-benzamide]", "cAMP production activity (%)": 51}
{"smiles": "Cc1cc(NS(=O)(=O)NCCCO)ccc1/C=C/S(=O)(=O)N1CCC2(CC1)N=C(c1cccc(OC(F)(F)F)c1)NC2=O", "note": "[Compound 743, N-(3-Hydroxy-propyl)-N′-(3-methyl-4-{(E)-2-[4-oxo-2-(3-trifluoromethoxy-phenyl)-1,3,8-triaza-spiro[4.5]dec-1-ene-8-sulfonyl]-vinyl}-phenyl)-sulfamide]", "cAMP production activity (%)": 54}
{"smiles": "Cc1cc(C(=O)N2CCN(CCF)CC2)cc(C)c1/C=C/S(=O)(=O)N1CCC2(CC1)N=C(C1CCC(CCC(F)(F)F)CC1)NC2=O", "note": "(stereo not shown) [Compound 549, 8-((E)-2-{4-[4-(2-fluoro-ethyl)-piperazine-1-carbonyl]-2,6-dimethyl-phenyl}-ethenesulfonyl)-2-[4-(3,3,3-trifluoro-propyl)-cyclohexyl]-1,3,8-triaza-spiro[4.5]dec-1-en-4-one]", "cAMP production activity (%)": 86}
{"smiles": "CC(=O)Nc1ccc(CCS(=O)(=O)N2CCC3(CC2)N=C(C2CCC(CCCF)CC2)NC3=O)c(C)c1", "note": "(stereo not shown) [Compound 1064, N-[4-(2-{2-[4-(3-Fluoro-propyl)-cyclohexyl]-4-oxo-1,3,8-triaza-spiro[4.5]dec-1-ene-8-sulfonyl}-ethyl)-3-methyl-phenyl]-acetamide]", "cAMP production activity (%)": 73}
{"smiles": "Nc1cc(C(F)(F)F)c(/C=C/S(=O)(=O)N2CCC3(CC2)N=C(C2CCCCC2)NC3=O)c(C(F)(F)F)c1", "note": "[Compound 491, 8-[(E)-2-(4-amino-2,6-bis-trifluoromethyl-phenyl)-ethenesulfonyl]-2-cyclohexyl-1,3,8-triaza-spiro[4.5]dec-1-en-4-one]", "cAMP production activity (%)": 58}
{"smiles": "CCCCCCC(CCC)CCC1=NC2(CCN(S(=O)(=O)CCc3c(C)cc(N(C)C(N)=O)cc3C)CC2)C(=O)N1", "note": "(stereo not shown) [Compound 1353, 1-(3,5-dimethyl-4-{2-[4-oxo-2-(3-propyl-nonyl)-1,3,8-triaza-spiro[4.5]dec-1-ene-8-sulfonyl]-ethyl}-phenyl)-1-methyl-urea]", "cAMP production activity (%)": 111}
{"smiles": "O=C1NC(c2cccc(C(F)(F)F)c2)=NC12CCN(S(=O)(=O)c1ccc3ccccc3c1)CC2", "note": "[Compound 67, 8-(naphthalene-2-sulfonyl)-2-(3-trifluoromethyl-phenyl)-1,3,8-triaza-spiro[4.5]dec-1-en-4-one]", "cAMP production activity (%)": 53}
{"smiles": "Cc1cc(N(C)C(N)=O)cc(C)c1/C=C/S(=O)(=O)N1CCC2(CC1)N=C(CCCCCCCCCF)NC2=O", "note": "[Compound 1325, 1-(4-{(E)-2-[2-(9-Fluoro-nonyl)-4-oxo-1,3,8-triaza-spiro[4.5]dec-1-ene-8-sulfonyl]-vinyl}-3,5-dimethyl-phenyl)-1-methyl-urea]", "cAMP production activity (%)": 113}
{"smiles": "Cc1cc(C(=O)N(C)C)ccc1CCS(=O)(=O)N1CCC2(CC1)N=C(c1cccc(F)c1C)NC2=O", "note": "[Compound 114, 4-{2-[2-(3-fluoro-2-methyl-phenyl)-4-oxo-1,3,8-triaza-spiro[4.5]dec-1-ene-8-sulfonyl]-ethyl}-3,N,N-trimethyl-benzamide]", "cAMP production activity (%)": 105}
{"smiles": "O=C1NC(CCCCCCCC(F)(F)C(F)(F)F)=NC12CCN(S(=O)(=O)/C=C/c1cccc3c1ccn3C[C@H](O)CO)CC2", "note": "[Compound 623, 8-{(E)-2-[1-((S)-2,3-Dihydroxy-propyl)-1H-indol-4-yl]-ethenesulfonyl}-2-(8,8,9,9,9-pentafluoro-nonyl)-1,3,8-triaza-spiro[4.5]dec-1-en-4-one]", "cAMP production activity (%)": 123}
{"smiles": "CN(C)C(=O)CNc1ccc(CCS(=O)(=O)N2CCC3(CC2)N=C(C2CCCCC2)NC3=O)c(C(F)(F)F)c1", "note": "[Compound 270, 2-{4-[2-(2-cyclohexyl-4-oxo-1,3,8-triaza-spiro[4.5]dec-1-ene-8-sulfonyl)-ethyl]-3-trifluoromethyl-phenylamino}-N,N-dimethyl-acetamide]", "cAMP production activity (%)": 55}
{"smiles": "Cc1cc(N2C(=O)N(C)C(C)(C)C2=O)cc(C)c1CCS(=O)(=O)N1CCC2(CC1)N=C(C1CCC(C)CC1)NC2=O", "note": "(stereo not shown) [Compound 885, 3-(3,5-dimethyl-4-{2-[2-(4-methyl-cyclohexyl)-4-oxo-1,3,8-triaza-spiro[4.5]dec-1-ene-8-sulfonyl]-ethyl}-phenyl)-1,5,5-trimethyl-imidazolidine-2,4-dione]", "cAMP production activity (%)": 58}
{"smiles": "CCCCCCCCCC1=NC2(CCN(S(=O)(=O)CCc3c(C)cc(N4C(=O)CNC4=O)cc3C)CC2)C(=O)N1", "note": "[Compound 832, 3-{3,5-dimethyl-4-[2-(2-nonyl-4-oxo-1,3,8-triaza-spiro[4.5]dec-1-ene-8-sulfonyl)-ethyl]-phenyl}-imidazolidine-2,4-dione]", "cAMP production activity (%)": 84}
{"smiles": "Cc1cc(C(=O)N2CCC(O)(CF)CC2)cc(C)c1/C=C/S(=O)(=O)N1CCC2(CC1)N=C(c1ccc(OCC(F)(F)C(F)F)c(Cl)c1)NC2=O", "note": "[Compound 1247, 2-[3-chloro-4-(2,2,3,3-tetrafluoro-propoxy)-phenyl]-8-{(E)-2-[4-(4-fluoromethyl-4-hydroxy-piperidine-1-carbonyl)-2,6-dimethyl-phenyl]-ethenesulfonyl}-1,3,8-triaza-spiro[4.5]dec-1-en-4-one]", "cAMP production activity (%)": 70}
{"smiles": "CC(=O)Nc1ccc(CCS(=O)(=O)N2CCC3(CC2)N=C(C2CCC(F)(CCCF)CC2)NC3=O)c(C)c1", "note": "(stereo not shown) [Compound 1073, N-[4-(2-{2-[4-fluoro-4-(3-fluoro-propyl)-cyclohexyl]-4-oxo-1,3,8-triaza-spiro[4.5]dec-1-ene-8-sulfonyl}-ethyl)-3-methyl-phenyl]-acetamide]", "cAMP production activity (%)": 66}
{"smiles": "Cc1cc(CN(C)C(N)=O)cc(C)c1/C=C/S(=O)(=O)N1CCC2(CC1)N=C(C1CCC(CCC(F)(F)F)CC1)NC2=O", "note": "(stereo not shown) [Compound 1300, 1-[3,5-Dimethyl-4-((E)-2-{4-oxo-2-[4-(3,3,3-trifluoro-propyl)-cyclohexyl]-1,3,8-triaza-spiro[4.5]dec-1-ene-8-sulfonyl}-vinyl)-benzyl]-1-methyl-urea]", "cAMP production activity (%)": 81}
{"smiles": "COCc1cc(NC(C)=O)ccc1CCS(=O)(=O)N1CCC2(CC1)N=C(C1CCC(C)CC1)NC2=O", "note": "(stereo not shown) [Compound 754, N-(3-methoxymethyl-4-{2-[2-(4-methyl-cyclohexyl)-4-oxo-1,3,8-triaza-spiro[4.5]dec-1-ene-8-sulfonyl]-ethyl}-phenyl)-acetamide]", "cAMP production activity (%)": 89}
{"smiles": "CCCCC1CCC(C2=NC3(CCN(S(=O)(=O)/C=C/c4c(C)cc(N5C(=O)CNC5=O)cc4C)CC3)C(=O)N2)CC1", "note": "(stereo not shown) [Compound 631, 3-(4-{(E)-2-[2-(4-Butyl-cyclohexyl)-4-oxo-1,3,8-triaza-spiro[4.5]dec-1-ene-8-sulfonyl]-vinyl}-3,5-dimethyl-phenyl)-imidazolidine-2,4-dione]", "cAMP production activity (%)": 65}
{"smiles": "Cc1cc(C(=O)N(C)C)ccc1CCS(=O)(=O)N1CCC2(CC1)N=C(c1cccc(-c3ccccc3)c1)NC2=O", "note": "[Compound 172, 4-[2-(2-biphenyl-3-yl-4-oxo-1,3,8-triaza-spiro[4.5]dec-1-ene-8-sulfonyl)-ethyl]-3,N,N-trimethyl-benzamide]", "cAMP production activity (%)": 102}
{"smiles": "Cc1cc(NC[C@H](O)CO)ccc1CCS(=O)(=O)N1CCC2(CC1)N=C(c1ccc(C(F)(F)F)cc1)NC2=O", "note": "[Compound 154, 8-{2-[4-((S)-2,3-Dihydroxy-propylamino)-2-methyl-phenyl]-ethanesulfonyl}-2-(4-trifluoromethyl-phenyl)-1,3,8-triaza-spiro[4.5]dec-1-en-4-one]", "cAMP production activity (%)": 82}
{"smiles": "O=C1NC(C2CCCCC2)=NC12CCN(S(=O)(=O)CC/C=C/c1cccc3[nH]ccc13)CC2", "note": "[Compound 251, 2-Cyclohexyl-8-[(E)-4-(1H-indol-4-yl)-but-3-ene-1-sulfonyl]-1,3,8-triaza-spiro[4.5]dec-1-en-4-one]", "cAMP production activity (%)": 28}
